Measured values reported in the NIST ThermoML archive (doi:10.1016/j.jct.2012.08.021).

Assay: xn = mol fraction of the nth substance listed
Conditions: 101 kPa, Liquid, Vibrating tube method

CN(CCO)CCO [N-methyldiethanolamine] + C[S+](C)[O-]
Conditions | mass density [kg/m3]
293.14 K, x1 = 0.5998 | 1053.8
293.15 K, x1 = 0.1002 | 1089.57
293.15 K, x1 = 0.2 | 1079.89
293.15 K, x1 = 0.3001 | 1071.58
293.15 K, x1 = 0.4001 | 1064.66
293.15 K, x1 = 0.5002 | 1058.74
293.15 K, x1 = 0.7002 | 1049.58
293.15 K, x1 = 0.7998 | 1046.1
293.15 K, x1 = 0.8998 | 1043.37
293.15 K, x1 = 1 | 1040.6
303.14 K, x1 = 0.4001 | 1056.1
303.14 K, x1 = 0.5998 | 1045.65
303.15 K, x1 = 0.1002 | 1080.03
303.15 K, x1 = 0.2 | 1070.75
303.15 K, x1 = 0.3001 | 1062.76
303.15 K, x1 = 0.5002 | 1050.39
303.15 K, x1 = 0.7002 | 1041.61
303.15 K, x1 = 0.7998 | 1038.28
303.15 K, x1 = 0.8998 | 1035.67
303.15 K, x1 = 1 | 1033.02
313.14 K, x1 = 0.4001 | 1047.54
313.14 K, x1 = 0.5998 | 1037.49
313.15 K, x1 = 0.1002 | 1070.49
313.15 K, x1 = 0.2 | 1061.61
313.15 K, x1 = 0.3001 | 1053.94
313.15 K, x1 = 0.5002 | 1042.06
313.15 K, x1 = 0.7002 | 1033.61
313.15 K, x1 = 0.7998 | 1030.42
313.15 K, x1 = 0.8998 | 1027.95
313.15 K, x1 = 1 | 1025.4
323.14 K, x1 = 0.4001 | 1038.99
323.14 K, x1 = 0.5998 | 1029.33
323.15 K, x1 = 0.1002 | 1060.95
323.15 K, x1 = 0.2 | 1052.47
323.15 K, x1 = 0.3001 | 1045.11
323.15 K, x1 = 0.5002 | 1033.71
323.15 K, x1 = 0.7002 | 1025.6
323.15 K, x1 = 0.7998 | 1022.53
323.15 K, x1 = 0.8998 | 1020.18
323.15 K, x1 = 1 | 1017.74
333.14 K, x1 = 0.4001 | 1030.43
333.14 K, x1 = 0.5998 | 1021.15
333.15 K, x1 = 0.1002 | 1051.41
333.15 K, x1 = 0.2 | 1043.33
333.15 K, x1 = 0.3001 | 1036.29
333.15 K, x1 = 0.5002 | 1025.37
333.15 K, x1 = 0.7002 | 1017.56
333.15 K, x1 = 0.7998 | 1014.63
333.15 K, x1 = 0.8998 | 1012.37
333.15 K, x1 = 1 | 1010.03
343.14 K, x1 = 0.4001 | 1021.86
343.14 K, x1 = 0.5002 | 1017.01
343.14 K, x1 = 0.5998 | 1012.95
343.15 K, x1 = 0.1002 | 1041.86
343.15 K, x1 = 0.2 | 1034.18
343.15 K, x1 = 0.3001 | 1027.48
343.15 K, x1 = 0.7002 | 1009.51
343.15 K, x1 = 0.7998 | 1006.67
343.15 K, x1 = 0.8998 | 1004.51
343.15 K, x1 = 1 | 1002.25
353.14 K, x1 = 0.1002 | 1032.29
353.14 K, x1 = 0.4001 | 1013.27
353.14 K, x1 = 0.5002 | 1008.63
353.14 K, x1 = 0.5998 | 1004.72
353.14 K, x1 = 0.8998 | 996.587
353.14 K, x1 = 1 | 994.404
353.15 K, x1 = 0.2 | 1025.01
353.15 K, x1 = 0.7002 | 1001.4
353.16 K, x1 = 0.3001 | 1018.62
353.16 K, x1 = 0.7998 | 998.661
363.14 K, x1 = 0.1002 | 1022.7
363.14 K, x1 = 0.2 | 1015.82
363.14 K, x1 = 0.3001 | 1009.77
363.14 K, x1 = 0.5002 | 1000.22
363.14 K, x1 = 0.7002 | 993.263
363.14 K, x1 = 0.7998 | 990.621
363.14 K, x1 = 0.8998 | 988.594
363.15 K, x1 = 0.4001 | 1004.65
363.15 K, x1 = 0.5998 | 996.455
363.15 K, x1 = 1 | 986.471
